Source: US10577638B2, “Systems, devices, and methods for microbial detection and identification, and antimicrobial susceptibility testing” (Board of Regents, The University of Texas System, priority 2013, dated 2020)

Tested on: CA-MRSA clinical isolates and a wild type CA-MRSA strain
Assay: AST-Chip antibiotic susceptibility test of CA-MRSA clinical isolates (FUN-1 fluorescence)
Format: cell-based, Staphylococcus aureus
Details: isolates A32, K2 and B2 compared with isolates I27, D1, M2 and WT, 8 μg/ml, incubated 16 h
Experimental: The key steps in chip fabrication are described in below (these methods are also described in Srinivasan et al., which is incorporated by reference herein). The fabrication included three steps: (i) modification of the surface of glass slides with poly(styrene-co-maleic anhydride) (PSMA); (ii) printing spots of a 30 nl mixture of poly-l-lysine and barium chloride to create a “tie-layer” using a robotic microarrayer (Microsys, Digilab); and (iii) printing a 30 nl mixture of 0.5% alginate solution, optimized-growth medium and antimicrobial agents at various concentrations on top of the tie-layer. […]
The AST-Chip was benchmarked by evaluating the antimicrobial-susceptibility of a wild type strain of Staphylococcus aureus (UAMS-1) and CA-MRSA (USA 300) against methicillin. […] After incubation, the cell density at different spots was quantified using FUN-1, a vital fluorescent dye with excitation and emission wavelength that is compatible with a standard microarray scanner and facilitating faster read out (FIG. 6A). The fluorescence intensity of control (no drug) and sodium hypochlorite-treated dead biofilms were set at 100% and 0%, respectively. The inhibitory effects of the antimicrobial agents were determined by the reduction in fluorescence intensity in comparison to the controls (FIG. 6B). […]

## CN[C@H](CC(C)C)C(=O)N[C@H]1C(=O)N[C@@H](CC(N)=O)C(=O)N[C@H]2C(=O)N[C@H]3C(=O)N[C@H](C(=O)N[C@H](C(=O)O)c4cc(O)cc(O)c4-c4cc3ccc4O)[C@H](O)c3ccc(c(Cl)c3)Oc3cc2cc(c3O[C@@H]2O[C@H](CO)[C@@H](O)[C@H](O)[C@H]2O[C@H]2C[C@](C)(N)[C@H](O)[C@H](C)O2)Oc2ccc(cc2Cl)[C@H]1O [vancomycin]
  relative susceptibility of isolates to the drug: less susceptible
